The source of these data is patent publication US9187472B2 (AbbVie Inc., priority 2012, dated 2015).

What is called IC50 is the concentration at which inhibition is half-maximal.

For one experiment, the target named is NAMPT (Homo sapiens, UniProt P43490). Put plainly: TR-FRET Binding Assay of NAMPT with PRPP. Particulars: with 200 μM PRPP and 2.5 mM ATP; 2 nM NAMPT, 2 nM probe, 16 hours equilibration. In short, it runs like this: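 Compounds were mixed with 2 nM His-tagged NAMPT, 2 nM probe, 1 nM terbium anti-His antibody, 200 μM PRPP and 2.5 mM ATP in assay buffer with 2% DMSO, then left 16 hours to permit possible enzymatic processing of compounds before time-resolved FRET was measured.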
NAMPT, sequence (P43490 whole entry): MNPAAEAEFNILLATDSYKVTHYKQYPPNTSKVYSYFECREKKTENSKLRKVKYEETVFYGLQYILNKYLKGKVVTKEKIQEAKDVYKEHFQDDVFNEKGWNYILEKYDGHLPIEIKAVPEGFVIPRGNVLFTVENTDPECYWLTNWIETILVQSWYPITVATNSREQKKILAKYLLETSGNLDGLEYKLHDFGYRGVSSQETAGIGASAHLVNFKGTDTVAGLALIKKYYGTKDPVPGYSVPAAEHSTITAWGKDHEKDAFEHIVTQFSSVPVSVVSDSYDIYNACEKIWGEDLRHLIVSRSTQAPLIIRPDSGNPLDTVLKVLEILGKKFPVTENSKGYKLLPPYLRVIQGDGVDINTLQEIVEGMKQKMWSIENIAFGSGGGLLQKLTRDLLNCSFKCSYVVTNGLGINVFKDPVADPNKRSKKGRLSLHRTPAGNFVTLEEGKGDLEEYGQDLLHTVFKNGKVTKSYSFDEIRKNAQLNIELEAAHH
A general note: In TR-FRET formats the signal depends on donor and acceptor labels being close together.

Another experiment deals with PC3 cells. The experiment in a line: NAMPT Cell Proliferation Assay. To be noted: Homo sapiens, PC-3, 120 h, 5 days incubation, cell viability by Cell Titer Glo. Format: cell-based. An outline of the steps: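 Following overnight attachment in RPMI with 10% heat-inactivated FBS, PC3 cells at 500 per well receive compounds spanning 10 μM down to 1×10^−5 μM. Growth is assessed by luminescent viability read after 5 days.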
(In general: Cellular ATP, detected with luciferase, serves as a proxy for viable cell number.)

For experiment [1], the target named is NAMPT (human, recombinant, C-terminally His-tagged) (Homo sapiens, UniProt P43490). The experiment in a line: Time-Resolved Fluorescence Resonance Energy Transfer (TR-FRET) Binding Assay of NAMPT. Particulars: without substrates; 6.8 nM NAMPT, 200 nM probe, 3 hours equilibration. In short, it runs like this:
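Compounds, diluted in half-log steps, are mixed with enzyme (6.8 nM), fluorescent probe (200 nM) and Tb-anti-His antibody (1 nM) in pH 7.5 HEPES buffer containing 10 mM MgCl2 and 1 mM DTT. Plates equilibrate 3 h at room temperature; normalized FRET ratios are fitted by four-parameter logistic regression for IC50.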

NAMPT (human, recombinant, C-terminally His-tagged), sequence (P43490 whole entry): as above

Turning to `COCCC(=O)N(C[C@@H]1CCCO1)c1ncc(C(=O)NCc2ccc3nccn3c2)s1` [Example 148, N-(imidazo[1,2-a]pyridin-6-ylmethyl)-2-{(3-methoxypropanoyl)[(2S)-tetrahydrofuran-2-ylmethyl]amino}-1,3-thiazole-5-carboxamide], the IC50 on NAMPT came to 0.00135 µM; in the experiment with PC3 cells, 0.0415 µM; in experiment [1], 6.23 µM.
On the same counts, the results for `O=C(NCc1ccn2ccnc2c1)c1ccc(C2CCN(C(=O)Cc3ccccc3)CC2)cc1` [Example 707, N-(imidazo[1,2-a]pyridin-7-ylmethyl)-4-[1-(phenylacetyl)piperidin-4-yl]benzamide] are 0.000624 µM, 0.0741 µM and 0.277 µM.
On the same counts, the results for `O=C(NCc1ccn2ccnc2c1)Nc1ccc(O[C@@H]2CCN(C(=O)C3CC3)C2)cc1` [Example 331, 1-(4-{[(3R)-1-(cyclopropylcarbonyl)pyrrolidin-3-yl]oxy}phenyl)-3-(imidazo[1,2-a]pyridin-7-ylmethyl)urea] are 0.000416 µM, 0.227 µM and 0.383 µM.
On the same counts, the results for `O=C(NCc1ccn2ccnc2c1)c1ccc(C2CN(C(=O)c3cccs3)C2)cc1` [Example 552, N-(imidazo[1,2-a]pyridin-7-ylmethyl)-4-[1-(thiophen-2-ylcarbonyl)azetidin-3-yl]benzamide] are 0.000543 µM, 0.0426 µM and 0.184 µM.
In the case of `CC(C)C[C@@H](NC(=O)C1CC1)c1ccc(C(=O)NCc2ccn3ccnc3c2)s1` [Example 685, 5-{(1R)-1-[(cyclopropylcarbonyl)amino]-3-methylbutyl}-N-(imidazo[1,2-a]pyridin-7-ylmethyl)thiophene-2-carboxamide], the figures for the IC50 (on NAMPT; in the experiment on PC3 cells; in experiment [1]) were 0.00136 µM, 0.074 µM and 1.25 µM, respectively.
On the same counts, the results for `O=C(NCc1ccn2ccnc2c1)Nc1ccc(O[C@@H]2CCN(C(=O)[C@H]3CCCO3)C2)cc1` [Example 335, 1-(imidazo[1,2-a]pyridin-7-ylmethyl)-3-[4-({(3R)-1-[(2R)-tetrahydrofuran-2-ylcarbonyl]pyrrolidin-3-yl}oxy)phenyl]urea] are 0.000354 µM, 0.0976 µM and 0.632 µM.
On the same counts, the results for `CC1(C(=O)N2CCC(c3ccc(C(=O)NCc4ccn5ccnc5c4)s3)C2)CC1` (stereo not drawn) [Example 795, N-(imidazo[1,2-a]pyridin-7-ylmethyl)-5-{1-[(1-methylcyclopropyl)carbonyl]pyrrolidin-3-yl}thiophene-2-carboxamide] are 0.000764 µM, 0.0062 µM and 0.0896 µM.
In the same order, the values of `O=C(NCc1ccn2ccnc2c1)c1ccc(C2CCN(C(=O)c3ccncc3)C2)s1` (stereo not drawn) [Example 773, N-(imidazo[1,2-a]pyridin-7-ylmethyl)-5-[1-(pyridin-4-ylcarbonyl)pyrrolidin-3-yl]thiophene-2-carboxamide] are 0.000773 µM, 0.00953 µM and 0.0726 µM.
On to `O=C(NCc1ccn2ccnc2c1)c1cnc(C2=CCN(C(=O)c3ccccc3)CC2)s1` [Example 297, 2-(1-benzoyl-1,2,3,6-tetrahydropyridin-4-yl)-N-(imidazo[1,2-a]pyridin-7-ylmethyl)-1,3-thiazole-5-carboxamide], for which the IC50 on NAMPT stood at 0.000286 µM; in the experiment on PC3 cells, 0.0358 µM; in experiment [1], 0.177 µM.
For the compound `O=C(NCc1ccc2nccn2c1)c1ccc(C2=CCN(C(=O)C3CCOC3)CC2)cc1` (stereo not drawn) [Example 100, N-(imidazo[1,2-a]pyridin-6-ylmethyl)-4-[1-(tetrahydrofuran-3-ylcarbonyl)-1,2,3,6-tetrahydropyridin-4-yl]benzamide], the figures for the half-inhibitory concentration (IC50) (at NAMPT; in the experiment with PC3 cells; in experiment [1]) were 0.000169 µM, 0.0162 µM and 0.102 µM, respectively.
In the same order, the values of `CC1(C(=O)N2CCC(c3ccc(C(=O)NCc4ccn5ccnc5c4)cc3)C2)CC1` (stereo not drawn) [Example 584, N-(imidazo[1,2-a]pyridin-7-ylmethyl)-4-{1-[(1-methylcyclopropyl)carbonyl]pyrrolidin-3-yl}benzamide] are 0.000756 µM, 0.0587 µM and 0.811 µM.
In the same order, the values of `O=C(NCc1ccn2ccnc2c1)c1ccc(-c2cnn(Cc3ccccc3)c2)o1` [Example 741, 5-(1-benzyl-1H-pyrazol-4-yl)-N-(imidazo[1,2-a]pyridin-7-ylmethyl)furan-2-carboxamide] are 0.000647 µM, 0.0749 µM and 0.068 µM.
On the same counts, the results for `CCCNC(=O)c1ccc(NC(=O)Nc2ccc3nccn3c2)cc1` [Example 17, 4-[(imidazo[1,2-a]pyridin-6-ylcarbamoyl)amino]-N-propylbenzamide] are 0.000401 µM, 4.96 µM and 2.96 µM.
Take `O=C(NCc1ccn2ccnc2c1)c1ccc(C2CN(C(=O)CC3CC3)C2)cc1` [Example 548, 4-[1-(cyclopropylacetyl)azetidin-3-yl]-N-(imidazo[1,2-a]pyridin-7-ylmethyl)benzamide]: the values for the IC50 (at NAMPT; with PC3 cells; in experiment [1]) were 0.000471 µM, 0.0745 µM and 0.397 µM, respectively.
On to `COCCOCC(=O)N1CC=C(c2ccc(NC(=O)Nc3ccc4nccn4c3)cc2)CC1` [Example 32, 1-imidazo[1,2-a]pyridin-6-yl-3-(4-{1-[(2-methoxyethoxy)acetyl]-1,2,3,6-tetrahydropyridin-4-yl}phenyl)urea], for which the figures for the IC50 (on NAMPT; with PC3 cells; in experiment [1]) were 0.000169 µM, 0.284 µM and 0.906 µM, respectively.
On the same counts, the results for `CC[C@H](C)C(=O)N1CC=C(c2ccc(C(=O)NCc3ccn4ccnc4c3)o2)CC1` [Example 748, N-(imidazo[1,2-a]pyridin-7-ylmethyl)-5-{1-[(2S)-2-methylbutanoyl]-1,2,3,6-tetrahydropyridin-4-yl}furan-2-carboxamide] are 0.000648 µM, 0.0507 µM and 0.558 µM.
On the same counts, the results for `O=C(NCc1ccn2ccnc2c1)c1ccc(O[C@@H]2CCN(C(=O)[C@H]3CCOC3)C2)cc1` [Example 494, N-(imidazo[1,2-a]pyridin-7-ylmethyl)-4-({(3R)-1-[(3S)-tetrahydrofuran-3-ylcarbonyl]pyrrolidin-3-yl}oxy)benzamide] are 0.000712 µM, 1.22 µM and 7.56 µM.
On the same counts, the results for `CC(C)(O)C(=O)N1CC(c2ccc(NC(=O)NCc3ccn4ccnc4c3)cc2)C1` [Example 457, 1-{4-[1-(2-hydroxy-2-methylpropanoyl)azetidin-3-yl]phenyl}-3-(imidazo[1,2-a]pyridin-7-ylmethyl)urea] are 0.000487 µM, 0.194 µM and 1.14 µM.
`O=C(NCc1ccn2ccnc2c1)c1ccc(N2CC(CO)OC2=O)s1` (stereo not drawn) [Example 266, 5-[5-(hydroxymethyl)-2-oxo-1,3-oxazolidin-3-yl]-N-(imidazo[1,2-a]pyridin-7-ylmethyl)thiophene-2-carboxamide]: the IC50 on NAMPT turned out to be 0.000333 µM; in the experiment on PC3 cells it was 0.606 µM; in experiment [1] it was 0.12 µM.
In the same order, the values of `O=C(Nc1ccc(C(=O)NCCN2CCCC2)cc1)Nc1ccc2nccn2c1` [Example 11, 4-[(imidazo[1,2-a]pyridin-6-ylcarbamoyl)amino]-N-[2-(pyrrolidin-1-yl)ethyl]benzamide] are 0.000271 µM, 4.53 µM and 7.6 µM.
In the same order, the values of `O=C(Nc1ccc(C2=CCN(C(=O)CC3CCOC3)CC2)cc1)Nc1ccc2nccn2c1` (stereo not drawn) [Example 28, 1-imidazo[1,2-a]pyridin-6-yl-3-{4-[1-(tetrahydrofuran-3-ylacetyl)-1,2,3,6-tetrahydropyridin-4-yl]phenyl}urea] are 0.00019 µM, 0.0142 µM and 0.152 µM.
In the same order, the values of `O=C(NCc1ccn2ccnc2c1)c1ccc(C2CCN(C(=O)CC3CC3)CC2)cc1` [Example 312, 4-[1-(cyclopropylacetyl)piperidin-4-yl]-N-(imidazo[1,2-a]pyridin-7-ylmethyl)benzamide] are 0.000243 µM, 0.065 µM and 0.165 µM.
As for `O=C(NCc1ccn2ccnc2c1)c1ccc(-c2cnn(CC3(F)CCOCC3)c2)o1` [Example 790, 5-{1-[(4-fluorotetrahydro-2H-pyran-4-yl)methyl]-1H-pyrazol-4-yl}-N-(imidazo[1,2-a]pyridin-7-ylmethyl)furan-2-carboxamide], the results for the IC50 (at NAMPT; in the experiment with PC3 cells; in experiment [1]) were 0.000586 µM, 0.0026 µM and 0.0795 µM, respectively.
Regarding `O=C(CC(F)(F)F)NC1(c2ccc(C(=O)NCc3ccn4ccnc4c3)s2)CCC1` [Example 472, N-(imidazo[1,2-a]pyridin-7-ylmethyl)-5-{1-[(3,3,3-trifluoropropanoyl)amino]cyclobutyl}thiophene-2-carboxamide], the IC50 at NAMPT was determined as 0.000334 µM; in the experiment with PC3 cells, 0.963 µM; in experiment [1] it was 2.86 µM.
In the same order, the values of `CC(C)C[C@@H](NC(=O)CC1CCOC1)c1ccc(C(=O)NCc2ccn3ccnc3c2)s1` (stereo partly drawn) [Example 686, N-(imidazo[1,2-a]pyridin-7-ylmethyl)-5-{(1R)-3-methyl-1-[(tetrahydrofuran-3-ylacetyl)amino]butyl}thiophene-2-carboxamide] are 0.0013 µM, 0.0772 µM and 0.959 µM.
